The structures appear in SMILES notation. Where only a bound is given, the exact number is not on record here.

By IC50 is commonly meant the concentration that inhibits the measured activity by half. The low end stands for higher potency, the high end for lower potency.

Chain of EGFR (P00533 whole entry, looked up): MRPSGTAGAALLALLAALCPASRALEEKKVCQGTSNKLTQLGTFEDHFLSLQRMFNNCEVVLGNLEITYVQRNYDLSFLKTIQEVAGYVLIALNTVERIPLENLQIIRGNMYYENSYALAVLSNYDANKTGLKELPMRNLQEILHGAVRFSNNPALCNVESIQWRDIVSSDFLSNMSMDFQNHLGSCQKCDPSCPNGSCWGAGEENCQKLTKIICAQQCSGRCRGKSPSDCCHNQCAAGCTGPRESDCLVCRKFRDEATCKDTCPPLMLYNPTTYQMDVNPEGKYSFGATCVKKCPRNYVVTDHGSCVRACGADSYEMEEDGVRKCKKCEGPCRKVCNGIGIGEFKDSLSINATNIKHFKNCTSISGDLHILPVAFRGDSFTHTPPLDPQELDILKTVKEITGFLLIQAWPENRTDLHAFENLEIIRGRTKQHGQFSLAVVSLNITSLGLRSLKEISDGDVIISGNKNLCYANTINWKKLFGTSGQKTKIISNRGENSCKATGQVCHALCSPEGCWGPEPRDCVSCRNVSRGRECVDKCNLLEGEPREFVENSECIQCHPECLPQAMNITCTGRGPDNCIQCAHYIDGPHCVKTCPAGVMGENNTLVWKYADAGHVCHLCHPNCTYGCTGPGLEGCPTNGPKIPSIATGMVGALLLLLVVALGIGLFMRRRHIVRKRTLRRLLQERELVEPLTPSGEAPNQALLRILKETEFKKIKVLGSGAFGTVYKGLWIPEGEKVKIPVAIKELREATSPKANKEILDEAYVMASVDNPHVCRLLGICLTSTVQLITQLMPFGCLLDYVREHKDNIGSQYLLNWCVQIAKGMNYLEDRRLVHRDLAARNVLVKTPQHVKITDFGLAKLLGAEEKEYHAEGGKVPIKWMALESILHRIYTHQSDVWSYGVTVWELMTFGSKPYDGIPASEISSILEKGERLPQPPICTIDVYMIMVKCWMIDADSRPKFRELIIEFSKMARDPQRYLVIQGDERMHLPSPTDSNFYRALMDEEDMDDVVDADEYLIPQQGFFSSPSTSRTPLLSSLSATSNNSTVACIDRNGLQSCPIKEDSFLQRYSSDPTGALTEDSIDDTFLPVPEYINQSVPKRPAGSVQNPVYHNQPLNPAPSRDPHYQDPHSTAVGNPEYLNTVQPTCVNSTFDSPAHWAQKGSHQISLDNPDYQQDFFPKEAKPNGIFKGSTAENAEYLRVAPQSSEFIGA

This experiment concerns the target EGFR (UniProt P00533).
`O=C(Nc1ccc(Br)cc1)Nc1ncnc2nn3ccccc3c12` gave an IC50 of over 10 µM.

For `O=C(Nc1cccc(C(F)(F)F)c1)Nc1ncnc2nn3ccccc3c12`, the IC50 was over 10 µM.

Regarding `N#Cc1cccc(NC(=O)Nc2ncnc3nn4ccccc4c23)c1`, the IC50 is over 10 µM.

In turn, `Nc1ncnc2nn3ccccc3c12` returned an IC50 of over 10 µM.

In turn, `O=C(Nc1cccc([N+](=O)[O-])c1)Nc1ncnc2nn3ccccc3c12` returned a 50% inhibitory concentration (IC50) of over 10 µM.

`O=C(Nc1ccc(F)cc1)Nc1ncnc2nn3ccccc3c12`: the half-maximal inhibitory concentration (IC50) was over 10 µM.

As to `Clc1cc(Nc2ncnc3nn4ccccc4c23)ccc1OCc1ccccc1`, the IC50 was under 0.1 µM.

The molecule `c1ccc2c(CNNc3ncnc4nn5ccccc5c34)c[nH]c2c1` displayed an IC50 of 1 to 10 µM.

In the case of `c1ccc(Cc2nc3ccc(Nc4ncnc5nn6ccccc6c45)cc3[nH]2)cc1`, the IC50 lay in the range of 1 to 10 µM.

Turning to `O=C(Nc1ccc(C(F)(F)F)cc1)Nc1ncnc2nn3ccccc3c12`, the IC50 was over 10 µM.

Source of the values: the Kinase Knowledgebase extract (Sharma et al. 2016).
